# Key:
# [1] = Analysis of lymphocytes: absolute lymphocyte count of a patient in cohort 3; type: in vivo, human; details: patient 110-05 in cohort 3 (0.4 mg/kg IV twice weekly)
# From the text: In the clinical study of Example 1, the absolute lymphocyte count in the plasma of the patient 110-05 in cohort 3 was examined.
# adenovirus (AdV) = test: Human clinical study of once-weekly IV BCV (Example 4): viral load of AdV in plasma; type: in vivo; details: cohorts 4-6: 0.4, 0.6 or 0.8 mg/kg (20, 30 or 40 mg/dose if body weight ≥50 kg) IV once weekly
# Procedure: A human clinical study on the treatment of AdV infectious disease is conducted according to the following procedure. Patients aged 2 months or older who have asymptomatic AdV infection or AdV disease and have an underlying immunocompromised state, including hematopoietic stem cell transplant recipients before the immune reconstitution by the graft cells is achieved, organ transplant recipients on medication with an immunosuppressant, and patients with immunodeficiency syndrome. […] For patients who, at the physician's discretion, are assessed as being at high risk for AdV infection/recurrence of disease, the treatment period may be extended for up to 10 weeks, even after the 4-week treatment period is completed, if the AdV is not detected by the two most recent consecutive assays with an interval of 3 days at least. […] Adverse events are evaluated according to the National Cancer Institute Common Terminology Criteria for Adverse Events (NCI CTCAE) version 5.0 (grade 1-5). […]
# [2] = Human clinical study of once-weekly IV BCV (Example 4): adverse events; type: in vivo; details: cohort 4: 0.4 mg/kg (20 mg/dose if body weight ≥50 kg) IV once weekly
# Procedure: The study duration is at least 9 weeks, based on a screening period of 1 week, a treatment period of at least 4 weeks, and post-treatment follow-up period of 30 days. In the screening, after informed consent has been obtained from the patients, a screening evaluation is conducted to determine eligibility for the study. On the first day of the first week of the treatment period, patients are assigned a dose based on the applicable cohort (see the section 4.1.3 Cohorts 4-6 above). The duration of treatment is a minimum of 4 weeks and a maximum of 14 weeks, and termination is based on the treatment stopping criteria as described below. For patients who, at the physician's discretion, are assessed as being at high risk for AdV infection/recurrence of disease, the treatment period may be extended for up to 10 weeks, even after the 4-week treatment period is completed, if the AdV is not detected by the two most recent consecutive assays with an interval of 3 days at least. All patients are followed up for 30 days after the last dosing. Adverse events are evaluated according to the National Cancer Institute Common Terminology Criteria for Adverse Events (NCI CTCAE) version 5.0 (grade 1-5). In cohort 4, patients are enrolled in the initially planned dosing regimen of 0.4 mg/kg or 20 mg IV weekly. […]
smiles,measurement,setting,value
"CCCCCCCCCCCCCCCCOCCCOP(=O)(O)CO[C@H](CO)Cn1ccc(N)nc1=O [BCV, [(2S)-1-(4-amino-2-oxopyrimidin-1-yl)-3-hydroxypropan-2-yl]oxymethyl-(3-hexadecoxypropoxy)phosphinic acid]",number of lymphocytes (absolute lymphocyte count),[1],tended to increase
same,levels of viral load of AdV during the study period,adenovirus (AdV),reaches below the LOD
same,occurrence of adverse events,[2],particularly suppressed
